Assay results as given in US20110178072A1, “STEREOSPECIFICITY OF METHYLSULFINYL REDUCTION” (priority 2008, published 2011).

What was measured:
yeast fRMsr = biological target: T1, yeast fRMsr (Saccharomyces cerevisiae, UniProt P36088); experiment: Activity assay of purified recombinant yeast fRMsr towards free Met sulfoxides (HPLC, OPA derivatization); type: biochemical, S. cerevisiae; conditions: for Activity of recombinant yeast fRMsr protein towards the substrate: recombinant His-tagged yeast fRMsr; for Specific activity for each Met-O: yfRMsr (yeast free methionine R-sulfoxide reductase), ± standard deviations from 3 independent experiments
T1 construct: His-tag (C); made in house; host or cells: E. coli BL21 (DE3), pET21b
T1 sequence (P36088 1-180): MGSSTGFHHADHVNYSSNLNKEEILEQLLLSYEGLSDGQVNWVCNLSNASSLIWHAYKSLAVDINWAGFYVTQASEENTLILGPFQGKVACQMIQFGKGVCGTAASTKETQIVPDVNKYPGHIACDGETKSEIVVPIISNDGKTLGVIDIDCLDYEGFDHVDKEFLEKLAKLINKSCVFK
Description: Cloning and expression of yeast fRMsr—Characterization of S. cerevisiae fRMsr (YKL069W) is described in Le, D. T., et al. (2009) Functional analysis of free methionine-R-sulfoxide reductase from Saccharomyces cerevisiae. J Biol Chem., 284(7), 4354-4364. Briefly, a yeast fRMsr cDNA, which encodes a protein homologous to fRMsr from E. coli, was amplified from S. cerevisiae genomic DNA and subcloned into pET21b vector (Novagen) using primers 5′-AAACATATGATGGGCTCATCAACCGGGTTTC-3′ (sense; SEQ ID NO:1) and 5′-AAGCGGCCGCGACACATGATTTATTAATTAATTTAGCAAG-3′ (antisense; SEQ ID NO:2). After transformation into BL21 (DE3) E. coli, the subcloned sequence was verified by DNA sequencing. Cells with the plasmid in 500 mL LB medium containing 100 μg/mL ampicillin were grown until OD600 reached 0.6-0.8, followed by addition of IPTG to 0.3 mM. Protein expression was at 30° C. for 4 hours, followed by harvesting cells by centrifugation at 4,000 rpm for 5 minutes. Cells were washed with PBS and stored at −70° C. until use.
To purify the protein, a cell pellet was dissolved in resuspension buffer (Tris-HCl, pH 7.5, 15 mM imidazole, 300 mM NaCl), and PMSF was added to a final concentration of 0.5 mM. After sonication, the supernatant was collected by centrifugation at 8,000 rpm for 30 minutes. The supernatant was loaded onto a cobalt Talon resin (Clontech) pre-equilibrated with resuspension buffer. Following washing with the same buffer, the protein was eluted with elution buffer (Tris-HCl, pH 7.5, 300 mM imidazole, 300 mM NaCl). Fractions containing yeast fRMsr were pooled together and dialyzed overnight against PBS in a dialysis cassette (Pierce).
Activity assays of fRMsr—Reaction mixture (40 μL) included 50 mM DTT, 1 mM substrate (Met-RO or Met-SO), and purified enzyme or cell lysate prepared by treatment with CelLytic™M cell lysis reagent (Sigma). 20 μL of the reaction mixture was mixed with 2 μL of TCA and subjected to OPA derivatization as described above and then injected onto the column to measure endogenous Met level in the samples. An additional 20 μL from the same original reaction mixture were incubated at 37° C. for 30 minutes and then subjected to OPA derivatization by the same procedure using TCA. After derivatization of the sample (2-5 μL) by adding OPA solution to 100 μL as a final volume, 50 μL of the mixture were subjected to an HPLC separation as described above.

[1] = system: MsrA-knockdown SK-Hep1 cells; experiment: Growth of MsrA-knockdown SK-Hep1 cells on Met and Met sulfoxide media; type: cell-based, human; conditions: 0.1 mM, 96 hours
Experimental: Proliferation Assay—Cell growth was quantified using colorimetric MTS assay (Promega). Cells in regular DMEM medium were plated in 96-well plates at 5×10^3 cells/well, washed with PBS, and specialized DMEM media were added that contained Met, Met-SO, Met-RO, or Met-RSO 24 hours after plating. To assay for cell proliferation, a tetrazolium compound [3-(4,5-dimethylthiazol-2-yl)-5-(3-carboxymethoxyphenyl)-2-(4-sulfophenyl)-2H-tetrazolium, inner salt; MTS] and an electron coupling reagent (phenazine methosulfate; PMS) were mixed according to the manufacturer's protocol and then 20 μL of the mixture were added to 100 μL of phenol red-excluded media that further replaced cell culture media. After 90 minutes of incubation at 37° C. in the atmosphere of 5% CO2, cell proliferation was measured at indicated time periods from 0 to 96 hours at 450 nm in a plate reader. Direct counting of viable cells using 0.2% trypan blue was done in 6-well plates. Knockdown of MsrA in SK-Hep1 cells by siRNA—Double stranded siRNAs (Dharmacon) for targeting human MsrA mRNA were used to knockdown this gene in SK-Hep1 cells. Cells were transfected with siRNA by using DharmaFECT™ Transfection Reagent (Dharmacon) according to the manufacturer's protocol. Proliferation of these cells was assayed 60 hours after transfection in comparison with control transfected cells.

SK-Hep1 cell extracts = experiment: Specific activity of SK-Hep1 cell extracts for reduction of free Met sulfoxides; type: biochemical, human; conditions: for Specific activity for each Met-O: SK-Hep1, ± standard deviations from 3 independent experiments
Experimental: HPLC analysis of media samples-Cells were plated in 6-well plates at 7.5×10^4 cells/well in 1.5 mL of regular DMEM medium. After 24 hours, cells were washed with PBS and the medium was changed to a modified DMEM containing Met, Met-SO, Met-RO, or Met-RSO (0.1 mM of each amino acid). 90 μL of medium from each well was collected at 0, 24, 48, 72, 96 hours and mixed with 10 μL of 100% TCA. After incubation at 4° C. for 10 minutes and centrifugation at 13,000 rpm for 15 minutes, the supernatant (50 μL) was diluted 10 times with distilled water and prepared for OPA derivatization. OPA derivatization of amino acids and HPLC analysis was performed as described (Sharov, V. S., Ferrington, D. A., Squier, T. C., […]. (1999) FEBS Lett. 455, 247-250) with minor modifications. The derivatization reagent was freshly prepared as a stock solution (40 mg of o-phthalaldehyde, 1 mL of methanol, 50 μL, of 2-mercaptoehanol, 5 mL of 0.1 M Na2B4O7, pH 9.5) at room temperature in a capped amber vial. Sample solutions (2-5 μL) were mixed with the OPA derivatization reagent to 100 μL, final volume. Following a 2 minute reaction at room temperature, the mixture was fractionated on a Zorbax Eclipse XDB-C8 column (4.6×150 mm). Changes in Met levels in the fRMsr activity assay were similarly quantified. […] Activity assays of fRMsr-Reaction mixture (40 μL) included 50 mM DTT, 1 mM substrate (Met-RO or Met-SO), and purified enzyme or cell lysate prepared by treatment with […] cell lysis reagent (Sigma). 20 μL of the reaction mixture was mixed with 2 μL of TCA and subjected to OPA derivatization as described above and then injected onto the column to measure endogenous Met level in the samples. An additional 20 μL from the same original reaction mixture were incubated at 37° C. for 30 minutes and then subjected to OPA derivatization by the same procedure using TCA. After derivatization of the sample (2-5 μL) by adding OPA solution to 100 μL as a final volume, 50 μL of the mixture were subjected to an HPLC separation as described above.

| SMILES | Activity of recombinant yeast fRMsr protein towards the substrate (yeast fRMsr) | Specific activity for each Met-O (yeast fRMsr) | Growth of MsrA-deficient cells [1] | Specific activity for each Met-O (SK-Hep1 cell extracts) | Specific activity of SK-Hep1 cell extracts for reduction of free Met sulfoxide (SK-Hep1 cell extracts) |
| --- | --- | --- | --- | --- | --- |
| C[S@+]([O-])CC[C@H](N)C(=O)O [Met-SO, methionine-S-sulfoxide] | inactive | ND* (A signal corresponding to specific activity less than 5 pmol/min/mg is shown as ND (Not Detectable)) | grew neither | 38.6 ± 3.6 pmol/min/mg | ≈ 38.6 pmol/min/mg protein |
| C[S@@+]([O-])CC[C@H](N)C(=O)O [Met-RO, methionine-R-sulfoxide] | ≈ 33 nmol/min/mg protein | 30015 ± 2652 pmol/min/mg | grew neither | ND* (A signal corresponding to specific activity less than 5 pmol/min/mg is shown as ND (Not Detectable)) | No free Met-RO reductase activity was detected |
